Measured values reported in ChEMBL document CHEMBL1201862, “PubChem BioAssay data set” (2004).
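Values below derive from 48-hour exposures of cells grown in 96-well plates, with endpoints linearly interpolated between the two concentrations bracketing the appropriate inhibition level. GI50 marks 50% less growth.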 Active and inactive are the calls of the source. Cut-off read from the data, not from the text of the source: active = GI50 up to about 1.1 µM and inactive = higher.

What was measured:
Experiment in all cases: NCI anticancer screen, dose series, 48 h
A498 = tested on: A498
Malme-3M = tested on: Malme-3M
HCT-15 = tested on: HCT-15
Hs-578T = tested on: Hs-578T
OVCAR-3 = tested on: OVCAR-3
M14 = tested on: M14
BT-549 = tested on: BT-549
KM12 = tested on: KM12
COLO 205 = tested on: COLO 205
T47D = tested on: T47D
SK-MEL-2 = tested on: SK-MEL-2
SW-620 = tested on: SW-620
OVCAR-4 = tested on: OVCAR-4
SNB-75 = tested on: SNB-75
TK-10 = tested on: TK-10
NCI-H226 = tested on: NCI-H226
PC-3 = tested on: PC-3
SF-268 = tested on: SF-268
SR = tested on: SR

| SMILES | GI50 (A498) | GI50 (Malme-3M) | GI50 (HCT-15) [µM] | GI50 (Hs-578T) | GI50 (OVCAR-3) | GI50 (M14) | GI50 (BT-549) | GI50 (KM12) | GI50 (COLO 205) | GI50 (T47D) | GI50 (SK-MEL-2) | GI50 (SW-620) | GI50 (OVCAR-4) | GI50 (SNB-75) | GI50 (TK-10) | GI50 (NCI-H226) | GI50 (PC-3) | GI50 (SF-268) | GI50 (SR) |
| --- | --- | --- | --- | --- | --- | --- | --- | --- | --- | --- | --- | --- | --- | --- | --- | --- | --- | --- | --- |
| O=C1C(Cl)=C(Nc2ccc(S(=O)(=O)Nc3ccccn3)cc2)C(=O)c2ccccc21 | 20.7 µM (inactive) | 2.96 µM (inactive) | 4.36 | 13.1 µM (inactive) | 4.65 µM (inactive) | 5.93 µM (inactive) | 14.4 µM (inactive) | 13.1 µM (inactive) | 13.9 µM (inactive) | 6.08 µM (inactive) | 5.7 µM (inactive) | 5.78 µM (inactive) | 17.3 µM (inactive) | 7.91 µM (inactive) | 7.98 µM (inactive) | 20.7 µM (inactive) | 12.8 µM (inactive) | 8.2 µM (inactive) | 3.03 µM (inactive) |
| CC1=C(Br)C(=O)C(C)=C(Br)C1=O.Cc1c(O)c(Br)c(C)c(O)c1Br | 15.3 µM (inactive) | 2.1 µM (inactive) | 2.07 | 5.92 µM (inactive) | 1.83 µM (inactive) | 1.67 µM (inactive) | 5.33 µM (inactive) | 19.4 µM (inactive) | 1.98 µM (inactive) | 2.52 µM (inactive) | 3.53 µM (inactive) | 1.97 µM (inactive) | 1.79 µM (inactive) | 14.2 µM (inactive) | 1.64 µM (inactive) | 6.65 µM (inactive) | 2.05 µM (inactive) | 4.17 µM (inactive) | 0.925 µM (active) |
| O=C(O)/C=N/NC(=S)NC1CCCCC1 | > 100 µM (inactive) | > 100 µM (inactive) | > 100 | > 100 µM (inactive) | > 100 µM (inactive) | > 100 µM (inactive) | > 100 µM (inactive) | > 100 µM (inactive) | > 100 µM (inactive) | > 100 µM (inactive) | > 100 µM (inactive) | > 100 µM (inactive) | > 100 µM (inactive) | > 100 µM (inactive) | > 100 µM (inactive) | > 100 µM (inactive) | > 100 µM (inactive) | – | > 100 µM (inactive) |
| CCc1ccccc1NC(=O)/C=C/c1ccccc1 | > 100 µM (inactive) | > 100 µM (inactive) | > 100 | 70.6 µM (inactive) | > 100 µM (inactive) | > 100 µM (inactive) | > 100 µM (inactive) | > 100 µM (inactive) | > 100 µM (inactive) | > 100 µM (inactive) | > 100 µM (inactive) | > 100 µM (inactive) | > 100 µM (inactive) | > 100 µM (inactive) | > 100 µM (inactive) | > 100 µM (inactive) | > 100 µM (inactive) | > 100 µM (inactive) | > 100 µM (inactive) |
| NC1C/C(=N\O)c2c(I)sc(I)c21 (stereo not drawn) | 27 µM (inactive) | 15.7 µM (inactive) | 13.4 | 19.8 µM (inactive) | 15.8 µM (inactive) | 14.5 µM (inactive) | 15.9 µM (inactive) | 13.1 µM (inactive) | 19.6 µM (inactive) | 23.2 µM (inactive) | 17.5 µM (inactive) | 9.82 µM (inactive) | 22 µM (inactive) | 18.9 µM (inactive) | 16.9 µM (inactive) | 18.4 µM (inactive) | 17.1 µM (inactive) | 17.7 µM (inactive) | 4.8 µM (inactive) |
| Cc1ccc(CSC(=N)Nc2ccccc2)cc1C | 16.6 µM (inactive) | 17.1 µM (inactive) | 23.5 | 23.2 µM (inactive) | 19.3 µM (inactive) | 19.1 µM (inactive) | 22.3 µM (inactive) | 19.5 µM (inactive) | 16.3 µM (inactive) | 17.2 µM (inactive) | 16.7 µM (inactive) | 38.3 µM (inactive) | 16.1 µM (inactive) | 25.8 µM (inactive) | 28.5 µM (inactive) | 20.9 µM (inactive) | 22.5 µM (inactive) | 17 µM (inactive) | 19.5 µM (inactive) |
| C=C(C(=O)OC)N1C(=O)CC(C)C1=O (stereo not drawn) | 20.7 µM (inactive) | 2.45 µM (inactive) | 7.45 | 24.3 µM (inactive) | 8.05 µM (inactive) | 13.7 µM (inactive) | 14.6 µM (inactive) | 20.3 µM (inactive) | 4.2 µM (inactive) | 11.1 µM (inactive) | 16.9 µM (inactive) | 9.35 µM (inactive) | 18.2 µM (inactive) | 17 µM (inactive) | 6.79 µM (inactive) | 27 µM (inactive) | 16.1 µM (inactive) | 16.7 µM (inactive) | 2.59 µM (inactive) |
| CC1=C(C(=O)Nc2ccccc2)C(c2ccc(C)o2)C(C#N)=C(SCc2ccccc2)N1 (stereo not drawn) | > 81.5 µM (inactive) | 5.77 µM (inactive) | 12.7 | > 87.3 µM (inactive) | 51.9 µM (inactive) | > 100 µM (inactive) | 43.4 µM (inactive) | 10.9 µM (inactive) | 31.3 µM (inactive) | 13.3 µM (inactive) | > 100 µM (inactive) | > 58.6 µM (inactive) | > 72.3 µM (inactive) | > 100 µM (inactive) | > 65.3 µM (inactive) | > 100 µM (inactive) | > 55.8 µM (inactive) | > 100 µM (inactive) | 4.75 µM (inactive) |
| CCCCCCCCCCCCCCCCCCNc1ccn(C2OC(COP(=O)(O)OCC3OC(n4ccc(NC(=O)CCCCCCCCCCCCCCCCC)nc4=O)C(OC(C)=O)C3OC(C)=O)C(OC(C)=O)C2OC(C)=O)c(=O)n1 (stereo not drawn) | > 100 µM (inactive) | > 100 µM (inactive) | > 100 | > 100 µM (inactive) | > 100 µM (inactive) | > 100 µM (inactive) | > 100 µM (inactive) | > 100 µM (inactive) | > 100 µM (inactive) | > 100 µM (inactive) | > 100 µM (inactive) | > 100 µM (inactive) | > 100 µM (inactive) | > 100 µM (inactive) | > 100 µM (inactive) | > 100 µM (inactive) | > 100 µM (inactive) | > 100 µM (inactive) | > 100 µM (inactive) |
| C(=C\c1ccccc1)/COc1ccccc1C(N1CCOCC1)n1nc2ccccc2n1 (stereo not drawn) | 38.1 µM (inactive) | 2.99 µM (inactive) | 1.82 | 7.24 µM (inactive) | 2.18 µM (inactive) | 2.58 µM (inactive) | 7.55 µM (inactive) | 5.26 µM (inactive) | 19.9 µM (inactive) | 10.7 µM (inactive) | 7.23 µM (inactive) | 4.28 µM (inactive) | 12.2 µM (inactive) | 4.8 µM (inactive) | 6.98 µM (inactive) | 7.28 µM (inactive) | 2.59 µM (inactive) | 5.71 µM (inactive) | 1.07 µM (active) |
| C/C(=N\N=C(/S)N1CC2CCC(CC2)C1)c1ccncn1 | 0.291 µM (active) | < 0.01 µM (active) | < 0.01 | 0.914 µM (active) | < 0.01 µM (active) | < 0.01 µM (active) | 0.0512 µM (active) | < 0.01 µM (active) | < 0.01 µM (active) | < 0.01 µM (active) | 1.19 µM (inactive) | < 0.01 µM (active) | 0.741 µM (active) | 0.221 µM (active) | < 0.01 µM (active) | < 0.01 µM (active) | < 0.01 µM (active) | 0.133 µM (active) | < 0.01 µM (active) |
